From ChEMBL document CHEMBL4507326, “Data for DCP probe TP-030-2” (2021)
pIC50, pKi: −log10 of the molar value. Calls of active or inactive are those of the source.

Columns and labels:
[1] = target: Alpha-2C adrenergic receptor (Homo sapiens, UniProt P18825); test: GPCRScan assay: inhibition of Alpha2C; parameters: radioligand conc. used [nm] 0.5 – 1.0, parental cells stable MDCK
[2] = target: Sigma intracellular receptor 2 (Homo sapiens, UniProt Q5BJF2); test: GPCRScan assay: inhibition of Sigma 2; parameters: radioligand conc. used [nm] 5.0, parental cells HEKT
Chain of Sigma intracellular receptor 2 (Q5BJF2 whole entry): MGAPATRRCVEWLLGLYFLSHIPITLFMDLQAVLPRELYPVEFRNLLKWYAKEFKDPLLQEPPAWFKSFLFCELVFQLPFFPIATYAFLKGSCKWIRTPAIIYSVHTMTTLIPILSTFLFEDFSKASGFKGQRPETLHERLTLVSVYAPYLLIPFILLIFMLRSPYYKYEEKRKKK

[3] = target: hERG (KCNH2) (Homo sapiens, UniProt Q12809); test: Inhibition of Potassium Channel hERG at 10 µM in the Eurofins-Panlabs radioligand binding assay (Eurofins_assay_265900); parameters: ligand concentration 1.5 nM, non-specific ligand with concentration Astemizole, incubation time 60 min, incubation temperature 25 °C; details: HEK-293 cells expressing human recombinant hERG, probe [3H] Astemizole, compound concentration 10 uM
[4] = test system: HT-29; test: HT29 necroptosis assay; format: functional, cell-based; details: Homo sapiens
[5] = target: Cannabinoid receptor 1 (Homo sapiens) (UniProt P21554); test: Inhibition of Cannabinoid CB1 at compound concentration of 10.0 uM in the Eurofins-Panlabs radioligand binding assay (Eurofins_assay_217050); parameters: ligand concentration 2 nM; details: Compound concentration 10.0 uM
[6] = target: Beta-adrenergic receptor kinase 1 (Homo sapiens, UniProt P25098); test: BARK1 [GRK2(ADR1LGG5)] Takeda global kinase panel
[7] = target: ALK tyrosine kinase receptor (Homo sapiens, UniProt Q9UM73); test: ALK(ALK1LGY1) Takeda global kinase panel
[8] = target: Bone morphogenetic protein receptor type-2 (Homo sapiens, UniProt Q13873); test: BMPR2(BMR2LGN1) Takeda global kinase panel
Chain of Bone morphogenetic protein receptor type-2 (Q13873 whole entry): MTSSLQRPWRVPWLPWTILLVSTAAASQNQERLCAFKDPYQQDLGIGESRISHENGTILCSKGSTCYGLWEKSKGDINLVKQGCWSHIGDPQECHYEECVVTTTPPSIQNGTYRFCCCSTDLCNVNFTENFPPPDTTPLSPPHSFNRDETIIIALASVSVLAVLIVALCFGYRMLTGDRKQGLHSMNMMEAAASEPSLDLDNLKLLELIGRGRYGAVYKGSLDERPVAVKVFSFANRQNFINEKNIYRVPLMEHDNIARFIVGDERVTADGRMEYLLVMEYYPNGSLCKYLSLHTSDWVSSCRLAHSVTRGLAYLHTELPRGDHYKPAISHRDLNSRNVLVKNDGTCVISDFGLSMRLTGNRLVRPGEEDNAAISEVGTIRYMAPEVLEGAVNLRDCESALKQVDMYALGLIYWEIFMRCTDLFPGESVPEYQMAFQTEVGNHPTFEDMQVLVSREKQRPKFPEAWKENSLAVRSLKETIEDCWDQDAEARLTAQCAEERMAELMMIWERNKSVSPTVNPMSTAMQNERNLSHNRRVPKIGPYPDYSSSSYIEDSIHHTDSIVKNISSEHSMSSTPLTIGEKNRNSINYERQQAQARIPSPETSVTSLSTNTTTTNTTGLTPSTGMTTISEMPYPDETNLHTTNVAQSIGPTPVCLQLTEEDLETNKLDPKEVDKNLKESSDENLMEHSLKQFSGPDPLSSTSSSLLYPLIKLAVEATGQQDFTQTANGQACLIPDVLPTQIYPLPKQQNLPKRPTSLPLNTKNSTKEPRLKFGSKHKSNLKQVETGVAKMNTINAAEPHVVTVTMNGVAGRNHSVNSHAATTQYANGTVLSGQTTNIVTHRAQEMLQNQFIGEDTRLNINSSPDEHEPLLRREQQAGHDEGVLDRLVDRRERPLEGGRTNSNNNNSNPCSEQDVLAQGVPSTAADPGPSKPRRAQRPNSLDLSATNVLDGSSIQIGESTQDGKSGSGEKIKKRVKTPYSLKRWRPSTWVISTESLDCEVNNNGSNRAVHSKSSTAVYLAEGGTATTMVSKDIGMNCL

[9] = target: Peripheral plasma membrane protein CASK (Homo sapiens, UniProt O14936); test: CASK(CASKLGY1) Takeda global kinase panel
[10] = target: Cyclin-dependent kinase 17 (Homo sapiens, UniProt Q00537); test: PCTAIRE2(CD17SGS1) Takeda global kinase panel
[11] = target: Cyclin-dependent kinase 8 (Homo sapiens, UniProt P49336); test: CDK8(CDK8CGS1) Takeda global kinase panel
[12] = target: Casein kinase II subunit alpha (Homo sapiens, UniProt P68400); test: CK2alpha1(C2A1LGF1) Takeda global kinase panel
[13] = target: Dual specificity tyrosine-phosphorylation-regulated kinase 2 (Homo sapiens, UniProt Q92630); test: DYRK2(DYR2LGY1) Takeda global kinase panel
[14] = target: Ephrin type-B receptor 2 (Homo sapiens, UniProt P29323); test: EphB2(EPB2LGY1) Takeda global kinase panel
[15] = target: Ephrin type-B receptor 3 (Homo sapiens, UniProt P54753); test: EphB3(EPB3LGRJ) Takeda global kinase panel
[16] = target: Vascular endothelial growth factor receptor 2 (Homo sapiens, UniProt P35968); test: KDR(KDR1CGY1) Takeda global kinase panel
[17] = target: Mitogen-activated protein kinase kinase kinase 14 (Homo sapiens, UniProt Q99558); test: NIK(M314LGP1) Takeda global kinase panel
[18] = target: Mitogen-activated protein kinase 13 (Homo sapiens, UniProt O15264); test: p38delta(MP13LGP1) Takeda global kinase panel
Chain of Mitogen-activated protein kinase 13 (O15264 whole entry): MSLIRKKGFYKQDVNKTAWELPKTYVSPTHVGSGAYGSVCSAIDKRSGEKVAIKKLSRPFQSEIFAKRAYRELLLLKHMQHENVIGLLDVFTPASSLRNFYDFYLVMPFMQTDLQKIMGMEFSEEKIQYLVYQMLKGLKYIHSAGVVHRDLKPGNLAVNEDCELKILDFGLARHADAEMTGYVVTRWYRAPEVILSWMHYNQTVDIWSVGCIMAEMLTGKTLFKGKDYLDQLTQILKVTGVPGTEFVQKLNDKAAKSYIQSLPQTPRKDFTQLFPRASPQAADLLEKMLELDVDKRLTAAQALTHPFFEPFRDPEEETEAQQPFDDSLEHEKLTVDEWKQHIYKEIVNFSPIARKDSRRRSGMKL

[19] = target: MAP kinase-activated protein kinase 2 (Homo sapiens, UniProt P49137); test: MAPKAPK2(MPK2LGRH) Takeda global kinase panel
Chain of MAP kinase-activated protein kinase 2 (P49137 whole entry): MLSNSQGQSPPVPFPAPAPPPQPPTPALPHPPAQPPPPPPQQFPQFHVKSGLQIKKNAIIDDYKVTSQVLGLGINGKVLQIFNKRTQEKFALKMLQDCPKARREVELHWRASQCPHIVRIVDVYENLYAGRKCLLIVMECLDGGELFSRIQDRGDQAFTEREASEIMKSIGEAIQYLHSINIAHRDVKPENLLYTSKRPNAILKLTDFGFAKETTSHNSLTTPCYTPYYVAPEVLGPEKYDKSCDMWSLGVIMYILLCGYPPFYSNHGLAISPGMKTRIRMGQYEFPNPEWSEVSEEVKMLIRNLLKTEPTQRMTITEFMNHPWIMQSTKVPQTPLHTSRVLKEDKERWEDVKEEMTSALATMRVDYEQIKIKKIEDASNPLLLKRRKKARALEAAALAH

[20] = target: Serine/threonine-protein kinase MARK1 (Homo sapiens, UniProt Q9P0L2); test: MARK1(MAR1PHY1) Takeda global kinase panel
Chain of Serine/threonine-protein kinase MARK1 (Q9P0L2 whole entry): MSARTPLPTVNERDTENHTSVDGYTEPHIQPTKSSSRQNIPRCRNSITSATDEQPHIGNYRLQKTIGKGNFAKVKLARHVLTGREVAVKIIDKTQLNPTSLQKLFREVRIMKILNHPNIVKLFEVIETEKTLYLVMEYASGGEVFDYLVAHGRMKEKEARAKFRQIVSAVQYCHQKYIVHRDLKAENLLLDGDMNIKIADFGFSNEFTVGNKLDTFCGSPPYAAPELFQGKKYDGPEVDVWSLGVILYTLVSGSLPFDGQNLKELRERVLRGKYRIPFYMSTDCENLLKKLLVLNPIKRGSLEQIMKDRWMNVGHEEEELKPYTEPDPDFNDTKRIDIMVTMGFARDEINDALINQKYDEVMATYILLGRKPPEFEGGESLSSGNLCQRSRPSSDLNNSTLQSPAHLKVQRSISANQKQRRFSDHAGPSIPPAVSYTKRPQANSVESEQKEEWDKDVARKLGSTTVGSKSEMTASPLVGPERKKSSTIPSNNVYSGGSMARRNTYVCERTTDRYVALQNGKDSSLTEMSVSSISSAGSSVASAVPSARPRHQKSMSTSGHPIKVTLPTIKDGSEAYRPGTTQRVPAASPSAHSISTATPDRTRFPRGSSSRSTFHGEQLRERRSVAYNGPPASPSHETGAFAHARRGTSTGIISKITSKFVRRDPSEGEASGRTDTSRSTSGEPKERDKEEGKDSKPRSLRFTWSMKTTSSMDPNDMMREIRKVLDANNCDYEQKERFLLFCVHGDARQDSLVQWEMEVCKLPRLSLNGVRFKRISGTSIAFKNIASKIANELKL

[21] = target: Serine/threonine-protein kinase PAK 5 (Homo sapiens, UniProt Q9P286); test: PAK5(PAK7LGF1) Takeda global kinase panel
[22] = target: cAMP-dependent protein kinase catalytic subunit alpha (Homo sapiens, UniProt P17612); test: PKAalpha(PRCALGH1) Takeda global kinase panel
[23] = target: Protein kinase C eta type (Homo sapiens, UniProt P24723); test: PKCeta(PRKHLGRA) Takeda global kinase panel
[24] = target: Serine/threonine-protein kinase D2 (Homo sapiens, UniProt Q9BZL6); test: PKD2(PRD2LHY1) Takeda global kinase panel
[25] = target: Receptor-interacting serine/threonine-protein kinase 1 (Homo sapiens, UniProt Q13546); test: RIPK1(RIP1PGN1) Takeda global kinase panel
Chain of Receptor-interacting serine/threonine-protein kinase 1 (Q13546 whole entry): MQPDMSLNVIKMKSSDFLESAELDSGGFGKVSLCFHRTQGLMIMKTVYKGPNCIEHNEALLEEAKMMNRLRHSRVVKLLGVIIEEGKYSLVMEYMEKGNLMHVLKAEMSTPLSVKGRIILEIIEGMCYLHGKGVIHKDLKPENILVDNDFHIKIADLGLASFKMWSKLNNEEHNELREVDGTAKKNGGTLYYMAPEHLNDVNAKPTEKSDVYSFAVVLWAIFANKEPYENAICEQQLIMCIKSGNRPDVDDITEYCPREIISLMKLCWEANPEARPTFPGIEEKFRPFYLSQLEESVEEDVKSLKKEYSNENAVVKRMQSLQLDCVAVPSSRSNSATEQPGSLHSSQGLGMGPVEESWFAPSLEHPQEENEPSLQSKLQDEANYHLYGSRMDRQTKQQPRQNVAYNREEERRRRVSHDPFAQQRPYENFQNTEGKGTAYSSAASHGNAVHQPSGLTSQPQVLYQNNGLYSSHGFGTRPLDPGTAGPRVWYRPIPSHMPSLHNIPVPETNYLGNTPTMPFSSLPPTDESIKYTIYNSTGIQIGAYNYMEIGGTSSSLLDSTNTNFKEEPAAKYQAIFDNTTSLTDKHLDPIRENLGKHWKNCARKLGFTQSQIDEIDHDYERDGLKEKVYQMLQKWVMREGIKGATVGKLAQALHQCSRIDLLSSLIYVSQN

[26] = target: Receptor-interacting serine/threonine-protein kinase 3 (Homo sapiens, UniProt Q9Y572); test: RIPK3(RIP3IGRI) Takeda global kinase panel
[27] = target: Proto-oncogene tyrosine-protein kinase ROS (Homo sapiens, UniProt P08922); test: Ros(ROS1PHY1) Takeda global kinase panel
[28] = target: Serine/threonine-protein kinase SIK2 (Homo sapiens, UniProt Q9H0K1); test: QIK(SIK2LGY1) Takeda global kinase panel
[29] = target: Serine/threonine-protein kinase 32A (Homo sapiens, UniProt Q8WU08); test: YANK1(S32APHY1) Takeda global kinase panel
[30] = target: STE20-related kinase adapter protein alpha (Homo sapiens, UniProt Q7RTN6); test: STLK5(STRAPHD1) Takeda global kinase panel
[31] = target: 5-hydroxytryptamine receptor 1D (Homo sapiens) (UniProt P28221); details: Compound concentration 10.0 uM
[32] = target: 5-hydroxytryptamine receptor 6 (Homo sapiens) (UniProt P50406); details: Compound concentration 10.0 uM
[33] = target: Histamine H4 receptor (Homo sapiens) (UniProt Q9H3N8); details: Compound concentration 10.0 uM
[34] = target: Alpha-1A adrenergic receptor (Homo sapiens) (UniProt P35348); details: Compound concentration 10.0 uM
[35] = target: Beta-1 adrenergic receptor (Homo sapiens) (UniProt P08588); details: Compound concentration 10.0 uM
Chain of Beta-1 adrenergic receptor (Homo sapiens) (P08588 whole entry, looked up): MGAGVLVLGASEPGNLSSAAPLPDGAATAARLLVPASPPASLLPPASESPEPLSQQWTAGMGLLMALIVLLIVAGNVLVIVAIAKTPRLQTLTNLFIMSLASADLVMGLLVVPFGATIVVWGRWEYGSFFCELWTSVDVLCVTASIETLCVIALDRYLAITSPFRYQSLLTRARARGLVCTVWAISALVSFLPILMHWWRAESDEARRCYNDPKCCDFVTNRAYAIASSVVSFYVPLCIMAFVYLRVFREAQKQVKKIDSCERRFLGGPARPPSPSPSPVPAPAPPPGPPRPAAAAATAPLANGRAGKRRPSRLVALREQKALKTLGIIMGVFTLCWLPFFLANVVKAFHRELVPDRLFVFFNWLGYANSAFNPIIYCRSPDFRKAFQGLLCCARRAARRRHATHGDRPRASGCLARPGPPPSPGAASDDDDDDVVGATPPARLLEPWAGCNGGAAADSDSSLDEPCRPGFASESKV

[36] = target: Muscarinic acetylcholine receptor M2 (Homo sapiens) (UniProt P08172); details: Compound concentration 10.0 uM
[37] = target: Muscarinic acetylcholine receptor M4 (Homo sapiens) (UniProt P08173); details: Compound concentration 10.0 uM
[38] = target: GABA-A receptor; anion channel (Rattus norvegicus) (UniProt O09028+P15431+P18506+P18508+P19969+P20236+P23574+P23576+P28471+P28473+P30191+P62813+P63079+P63138+Q91ZM7+Q9ES14); details: Compound concentration 10.0 uM
[39] = target: Histamine H3 receptor (Homo sapiens) (UniProt Q9Y5N1); details: Compound concentration 10.0 uM
[40] = target: Mu-type opioid receptor (Homo sapiens) (UniProt P35372); details: Compound concentration 10.0 uM
[41] = species: Rattus norvegicus; details: Compound concentration 10.0 uM
[42] = target: Glucocorticoid receptor (Homo sapiens) (UniProt P04150); details: Compound concentration 10.0 uM
[43] = target: Androgen receptor (Homo sapiens) (UniProt P10275); details: Compound concentration 10.0 uM
[44] = target: B1 bradykinin receptor (Homo sapiens) (UniProt P46663); details: Compound concentration 10.0 uM
Chain of B1 bradykinin receptor (Homo sapiens) (P46663 whole entry): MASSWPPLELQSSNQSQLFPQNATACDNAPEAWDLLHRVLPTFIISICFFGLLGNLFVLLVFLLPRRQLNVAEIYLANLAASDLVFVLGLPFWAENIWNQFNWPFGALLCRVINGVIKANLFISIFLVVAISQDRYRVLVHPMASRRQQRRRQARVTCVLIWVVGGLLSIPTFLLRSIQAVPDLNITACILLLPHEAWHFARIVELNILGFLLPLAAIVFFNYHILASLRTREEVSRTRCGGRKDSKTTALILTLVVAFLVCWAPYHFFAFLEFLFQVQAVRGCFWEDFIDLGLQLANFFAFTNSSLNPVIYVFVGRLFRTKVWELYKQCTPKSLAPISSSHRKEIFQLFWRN

Chain of Alpha-2C adrenergic receptor (P18825 whole entry): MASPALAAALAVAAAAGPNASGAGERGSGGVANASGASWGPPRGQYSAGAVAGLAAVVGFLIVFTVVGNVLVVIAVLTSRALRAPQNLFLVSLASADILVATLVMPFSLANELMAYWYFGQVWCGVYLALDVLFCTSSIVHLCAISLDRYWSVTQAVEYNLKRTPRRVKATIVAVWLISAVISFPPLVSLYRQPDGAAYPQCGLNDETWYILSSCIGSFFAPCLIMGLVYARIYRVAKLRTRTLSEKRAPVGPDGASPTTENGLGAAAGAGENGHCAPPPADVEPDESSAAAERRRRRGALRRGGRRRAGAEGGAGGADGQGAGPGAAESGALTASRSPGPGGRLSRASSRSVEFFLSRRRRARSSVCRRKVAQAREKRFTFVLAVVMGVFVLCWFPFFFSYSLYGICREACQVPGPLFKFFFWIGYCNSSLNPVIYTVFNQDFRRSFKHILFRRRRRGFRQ

CN1C(=O)[C@@H](N2CCc3c(nn(Cc4ccccc4)c3Br)C2=O)COc2ccccc21 [TP-030-2]
6.00: pIC50 [6] | pIC50 [7] | pIC50 [8] | pIC50 [9] | pIC50 [10] | pIC50 [11] | pIC50 [12] | pIC50 [13] | pIC50 [14] | pIC50 [15] | pIC50 [16] | pIC50 [17] | pIC50 [18] | pIC50 [19] | pIC50 [20] | pIC50 [21] | pIC50 [22] | pIC50 [23] | pIC50 [24] | pIC50 [26] | pIC50 [27] | pIC50 [28] | pIC50 [29] | pIC50 [30]
5.46: pKi ([2]; read-out: Ki)
inactive: inhibition [5] 40% | inhibition [31] -5.06% | inhibition [32] 8.15% | inhibition [33] 14.7% | inhibition [34] -4.83% | inhibition [35] 12% | inhibition [36] -4.12% | inhibition [37] 11.7% | inhibition [38] 33.9% | inhibition [39] 5% | inhibition [40] 27% | inhibition [41] -6% | inhibition [42] 10% | inhibition [43] 6% | inhibition [44] 1%
8.00: pIC50 [25]
5.53: pKi ([1]; read-out: Ki)
2820 nM: Ki ([1]; read-out: pKi (converted))
7% (not active): inhibition at 60 min, 10 µM [3]
3240 nM: Ki ([2]; read-out: pKi (converted))
active: IC50 [4] 1.3 nM
